Molecules are shown by their SMILES. Calls of active or inactive are those of the source. Where only a bound is given, the exact number is not on record here.

The values that follow come from ChEMBL document CHEMBL1201862, “PubChem BioAssay data set” (2004).

For assay [1], the target named is Melanin-concentrating hormone receptor 1 (Homo sapiens, UniProt Q99705). The experiment in a line: Late-stage fluorescence-based counterscreen for antagonists of the G-protein coupled receptor 7 (GPR7): cell-based dose response assay to identify antagonists of the melanin-concentrating hormone receptor 1 (MCHR1) Set 6. The class given is functional.
Sequence of Melanin-concentrating hormone receptor 1 (Q99705 whole entry): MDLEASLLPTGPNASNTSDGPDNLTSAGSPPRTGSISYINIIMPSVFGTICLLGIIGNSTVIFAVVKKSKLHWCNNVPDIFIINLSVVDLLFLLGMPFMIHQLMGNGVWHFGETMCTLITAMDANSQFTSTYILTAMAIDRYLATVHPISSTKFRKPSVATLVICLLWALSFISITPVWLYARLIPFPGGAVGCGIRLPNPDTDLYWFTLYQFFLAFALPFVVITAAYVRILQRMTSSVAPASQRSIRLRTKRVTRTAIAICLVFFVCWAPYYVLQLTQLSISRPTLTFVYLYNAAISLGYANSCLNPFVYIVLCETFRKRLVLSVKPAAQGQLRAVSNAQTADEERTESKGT
The target in assay [2] is T1, Neuropeptides B/W receptor type 1 (Homo sapiens, UniProt P48145).
T1 sequence (P48145 whole entry): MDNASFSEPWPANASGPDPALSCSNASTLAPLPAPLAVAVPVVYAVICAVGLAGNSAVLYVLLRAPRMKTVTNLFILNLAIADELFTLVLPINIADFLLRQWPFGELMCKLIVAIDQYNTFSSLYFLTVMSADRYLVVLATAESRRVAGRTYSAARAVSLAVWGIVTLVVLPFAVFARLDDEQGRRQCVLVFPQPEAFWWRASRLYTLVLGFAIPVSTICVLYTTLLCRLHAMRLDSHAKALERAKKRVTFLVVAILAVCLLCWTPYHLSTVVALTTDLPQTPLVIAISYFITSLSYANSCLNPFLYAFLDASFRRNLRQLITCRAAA
The experiment in a line: human NPBW1 receptor blockade, IC50 – cell-based, fluorescence, dose response, set 6, late-stage follow-up (AID 588583). The class given is functional.

Assay [3] has as its target Beta-2 adrenergic receptor (Homo sapiens, UniProt P07550). Description: ADRB2 activation measured by internalization – cell-based, FAP fluorogen, flow cytometry, cherry pick 1, dose response (AID 588763). The class given is functional.
Another assay deals with Trypsin (Sus scrofa, UniProt P00761). Description: trypsin protease activity blockade – biochemical, quenched peptide fluorescence, cherry-pick, selectivity assay for Rce1 protease inhibitor project, dose response (AID 488789).
Sequence of Trypsin (P00761 whole entry): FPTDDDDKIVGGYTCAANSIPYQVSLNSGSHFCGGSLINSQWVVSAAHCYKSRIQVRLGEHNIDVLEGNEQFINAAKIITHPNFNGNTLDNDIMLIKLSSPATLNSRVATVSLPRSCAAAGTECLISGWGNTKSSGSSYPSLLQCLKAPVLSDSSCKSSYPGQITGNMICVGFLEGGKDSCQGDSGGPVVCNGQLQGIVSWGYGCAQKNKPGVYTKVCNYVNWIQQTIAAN
For assay [4], the target named is T2, CAAX prenyl protease 2 (Saccharomyces cerevisiae S288c, UniProt Q03530).
T2 sequence (Q03530 whole entry): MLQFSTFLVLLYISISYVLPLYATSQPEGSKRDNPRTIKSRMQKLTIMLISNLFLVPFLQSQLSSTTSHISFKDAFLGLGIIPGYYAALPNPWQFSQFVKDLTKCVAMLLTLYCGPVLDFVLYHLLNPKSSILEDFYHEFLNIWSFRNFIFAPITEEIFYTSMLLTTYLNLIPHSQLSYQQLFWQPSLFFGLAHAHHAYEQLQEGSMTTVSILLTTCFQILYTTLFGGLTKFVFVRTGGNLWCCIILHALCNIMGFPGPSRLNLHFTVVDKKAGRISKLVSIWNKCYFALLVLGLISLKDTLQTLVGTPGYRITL
The format is biochemical.

For assay [5], the target named is T3, CAAX prenyl protease 2 (Homo sapiens, UniProt Q9Y256).
T3 sequence (Q9Y256 whole entry): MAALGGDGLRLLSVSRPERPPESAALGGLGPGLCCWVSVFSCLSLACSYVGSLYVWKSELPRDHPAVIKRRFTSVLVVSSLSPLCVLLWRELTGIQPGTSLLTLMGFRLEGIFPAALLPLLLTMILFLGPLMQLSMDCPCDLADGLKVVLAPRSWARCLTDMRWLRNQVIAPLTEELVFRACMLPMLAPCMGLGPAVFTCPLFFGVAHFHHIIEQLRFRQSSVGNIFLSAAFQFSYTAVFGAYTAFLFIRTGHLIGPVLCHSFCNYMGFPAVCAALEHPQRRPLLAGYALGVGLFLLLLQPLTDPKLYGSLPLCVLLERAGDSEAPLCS
Description: inhibition of Ras-converting CAAX protease Rce1 – biochemical, yeast membranes, quenched-peptide fluorescence, cherry-pick, dose response (AID 588849).

Assay [6] concerns the target DNA dC->dU-editing enzyme APOBEC-3A (Homo sapiens, UniProt P31941). Description: Dose Response confirmation of small molecule APOBEC3A DNA Deaminase Inhibitors via a fluorescence-based single-stranded DNA deaminase assay. [Related pubchem assays (depositor defined):AID493011, AID493024]. The format is functional.
Assay [7] addresses DNA dC->dU-editing enzyme APOBEC-3G (Homo sapiens, UniProt Q9HC16). The class given is functional.
Assay [8] in a line: Trypanosoma cruzi growth suppression in host cells – NIH3T3 host cells, beta-gal luminescence, confirmation (AID 2044).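 Note: intracellular parasites grown in NIH/3T3 mouse fibroblasts as host cells; luminescent beta-galactosidase reporter signal from transgenic T. cruzi replicating inside host cells; inhibitors lower the luminescence signal.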 The format is functional, cell-based.
Assay [9] can be described thus: NIH3T3 cell viability loss – ATP luminescence, mouse fibroblasts, counter-screen, dose response (AID 2010).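 Note: cells exposed to compound for about 90 hours before reading.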 The class given is functional, cell-based. Background: Counterscreens check selectivity or assay interference.
Assay [10] in a line: THP-1 cell cytotoxicity, dose response, cytotoxicity control for non-replicating M. tuberculosis project (AID 489025). The format is functional.
Assay [11] can be described thus: Vero E6 cell cytotoxicity, dose response, cytotoxicity control for non-replicating M. tuberculosis project, secondary assay (AID 492998). The format is functional, VeroE6. As to conditions: Vero C1008.
The nature of the next assay: cells. The format is functional.
The test system of the next assay is Escherichia coli. Description: microbe, parasite or virus in culture.
Assay [12] relates to Streptococcus sp. 'group A'. The experiment in a line: Streptococcus pyogenes SK(-)GAS viability under kanamycin – luminescence, BacTiterGlo, confirmation, counter-screen for streptokinase expression inhibitor project, dose response (AID 1900). The format is functional, organism-based.
The target in another assay is T4, Streptokinase A (Streptococcus pyogenes serotype M1, UniProt P10520).
T4 sequence (P10520 whole entry): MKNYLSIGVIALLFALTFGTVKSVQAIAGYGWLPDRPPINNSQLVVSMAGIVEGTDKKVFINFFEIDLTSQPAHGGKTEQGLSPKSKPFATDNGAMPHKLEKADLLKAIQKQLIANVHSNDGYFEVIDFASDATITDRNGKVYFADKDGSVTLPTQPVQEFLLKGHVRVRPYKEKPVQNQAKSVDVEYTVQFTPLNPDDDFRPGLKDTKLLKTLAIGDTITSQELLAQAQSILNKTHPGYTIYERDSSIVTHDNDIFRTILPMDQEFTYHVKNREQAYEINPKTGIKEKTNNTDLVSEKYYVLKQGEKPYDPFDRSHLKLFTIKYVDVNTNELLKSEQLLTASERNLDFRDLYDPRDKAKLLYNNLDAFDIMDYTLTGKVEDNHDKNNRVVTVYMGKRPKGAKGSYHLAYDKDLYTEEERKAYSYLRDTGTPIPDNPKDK
Description: viability-normalized secreted streptokinase activity reduction – plasminogen activation absorbance, OD405, dose response (AID 1914).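 Note: secreted streptokinase activity via plasminogen activation per viability signal from cell pellet.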 The class given is functional, Streptococcus pyogenes M1 GAS.

The next assay relates to Streptococcus. Description: GAS UMAA2166 growth inhibition – luminescence, BacTiterGlo, counter-screen for streptokinase expression inhibitor project, dose response (AID 1915).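 Note: potency for reduction of bacterial viability or growth.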 The class given is functional, organism-based.
The target in assay [13] is DNA (cytosine-5)-methyltransferase 1 (Homo sapiens, UniProt P26358). The experiment in a line: inhibition of DNA methylation by DNMT1 – biochemical, fluorescent molecular beacon, confirmation (AID 602386). The format is functional.
Sequence of DNA (cytosine-5)-methyltransferase 1 (P26358 whole entry): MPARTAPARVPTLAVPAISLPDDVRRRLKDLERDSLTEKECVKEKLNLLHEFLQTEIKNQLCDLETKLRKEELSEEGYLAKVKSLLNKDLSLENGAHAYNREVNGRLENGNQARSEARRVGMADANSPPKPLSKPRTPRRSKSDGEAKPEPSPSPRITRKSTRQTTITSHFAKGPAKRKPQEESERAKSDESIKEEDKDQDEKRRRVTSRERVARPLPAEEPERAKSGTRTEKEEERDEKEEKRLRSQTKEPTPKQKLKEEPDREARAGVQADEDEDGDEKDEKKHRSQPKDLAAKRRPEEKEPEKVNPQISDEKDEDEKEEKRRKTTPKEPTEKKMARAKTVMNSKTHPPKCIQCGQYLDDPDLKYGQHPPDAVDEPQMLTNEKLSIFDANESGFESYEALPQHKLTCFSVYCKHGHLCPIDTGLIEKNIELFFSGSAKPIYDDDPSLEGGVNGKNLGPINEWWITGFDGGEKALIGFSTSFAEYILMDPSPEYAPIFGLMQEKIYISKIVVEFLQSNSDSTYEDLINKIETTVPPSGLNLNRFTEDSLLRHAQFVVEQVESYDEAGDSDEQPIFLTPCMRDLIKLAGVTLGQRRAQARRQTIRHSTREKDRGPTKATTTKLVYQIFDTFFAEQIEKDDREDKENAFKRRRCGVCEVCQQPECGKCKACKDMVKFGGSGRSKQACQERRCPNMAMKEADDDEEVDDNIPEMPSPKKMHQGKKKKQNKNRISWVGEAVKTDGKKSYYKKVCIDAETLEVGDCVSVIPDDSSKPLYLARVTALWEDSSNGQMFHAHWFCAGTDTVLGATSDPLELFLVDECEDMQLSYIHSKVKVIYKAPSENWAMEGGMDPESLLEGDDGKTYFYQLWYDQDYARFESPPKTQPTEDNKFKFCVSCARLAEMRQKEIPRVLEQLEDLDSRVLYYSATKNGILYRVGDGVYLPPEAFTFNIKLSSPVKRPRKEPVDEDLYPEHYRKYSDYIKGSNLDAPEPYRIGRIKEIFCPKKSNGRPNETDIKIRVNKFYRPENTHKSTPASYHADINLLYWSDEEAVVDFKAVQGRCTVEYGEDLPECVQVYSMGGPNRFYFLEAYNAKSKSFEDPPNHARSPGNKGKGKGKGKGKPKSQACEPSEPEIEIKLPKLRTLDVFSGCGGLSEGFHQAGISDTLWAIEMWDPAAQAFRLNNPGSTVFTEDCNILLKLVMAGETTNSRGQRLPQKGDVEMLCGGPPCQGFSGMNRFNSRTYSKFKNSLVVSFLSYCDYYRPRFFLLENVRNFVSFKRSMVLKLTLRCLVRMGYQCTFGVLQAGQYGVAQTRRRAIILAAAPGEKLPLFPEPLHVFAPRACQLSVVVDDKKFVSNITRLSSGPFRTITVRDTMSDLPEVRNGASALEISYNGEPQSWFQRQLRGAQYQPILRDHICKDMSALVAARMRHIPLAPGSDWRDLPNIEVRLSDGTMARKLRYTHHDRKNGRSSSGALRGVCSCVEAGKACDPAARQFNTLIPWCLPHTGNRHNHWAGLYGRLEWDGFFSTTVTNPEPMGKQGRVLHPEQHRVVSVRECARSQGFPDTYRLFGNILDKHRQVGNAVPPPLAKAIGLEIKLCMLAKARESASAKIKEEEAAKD

Sequence of Beta-2 adrenergic receptor (P07550 whole entry): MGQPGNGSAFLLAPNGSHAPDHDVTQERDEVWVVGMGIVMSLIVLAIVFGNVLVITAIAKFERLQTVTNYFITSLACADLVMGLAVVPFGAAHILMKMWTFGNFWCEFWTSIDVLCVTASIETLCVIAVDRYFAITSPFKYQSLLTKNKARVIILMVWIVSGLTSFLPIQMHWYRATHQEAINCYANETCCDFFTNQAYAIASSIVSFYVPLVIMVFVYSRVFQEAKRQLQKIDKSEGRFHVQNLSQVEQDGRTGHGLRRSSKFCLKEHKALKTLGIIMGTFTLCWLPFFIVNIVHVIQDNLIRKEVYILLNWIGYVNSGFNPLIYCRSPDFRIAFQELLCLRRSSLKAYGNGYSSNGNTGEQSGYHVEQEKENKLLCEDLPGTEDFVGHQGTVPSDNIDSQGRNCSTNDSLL
Sequence of DNA dC->dU-editing enzyme APOBEC-3A (P31941 whole entry): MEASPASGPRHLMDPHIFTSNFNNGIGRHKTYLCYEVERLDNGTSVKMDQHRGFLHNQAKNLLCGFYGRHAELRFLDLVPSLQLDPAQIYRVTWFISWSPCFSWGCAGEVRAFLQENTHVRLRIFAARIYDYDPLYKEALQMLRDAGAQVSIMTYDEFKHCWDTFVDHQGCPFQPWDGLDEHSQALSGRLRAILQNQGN
Sequence of DNA dC->dU-editing enzyme APOBEC-3G (Q9HC16 whole entry): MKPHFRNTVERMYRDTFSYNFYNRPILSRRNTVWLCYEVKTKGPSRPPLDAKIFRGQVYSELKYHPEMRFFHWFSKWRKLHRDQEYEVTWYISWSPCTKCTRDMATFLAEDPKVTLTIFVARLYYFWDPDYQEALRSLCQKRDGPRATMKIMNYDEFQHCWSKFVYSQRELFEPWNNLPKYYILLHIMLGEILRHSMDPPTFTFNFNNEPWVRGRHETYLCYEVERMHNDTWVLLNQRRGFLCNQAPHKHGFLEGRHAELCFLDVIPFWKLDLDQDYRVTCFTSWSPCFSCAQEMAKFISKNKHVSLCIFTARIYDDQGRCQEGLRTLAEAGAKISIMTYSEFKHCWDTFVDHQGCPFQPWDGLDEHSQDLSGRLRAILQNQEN

For `COc1ccc(C(C#N)c2c(Br)cnn(Cc3cccc4ccccc34)c2=O)cc1` (centres undefined), the concentration for half-maximal inhibition (IC50) in assay [1] and in assay [2] was 0.131 µM (active) throughout.

For `COC(=O)c1cc([N+](=O)[O-])c(-n2cncn2)c([N+](=O)[O-])c1`, the EC50 in assay [3] was 19 µM (inactive).

Take `NC(=O)N1N=C2/C(=C/c3ccccc3)CCCC2C1c1ccccc1` (centres undefined): the concentration at half-maximal activity (AC50) at Trypsin was 10.8 µM (active); at CAAX prenyl protease 2 [4] it was 9.14 µM (active); on CAAX prenyl protease 2 [5], 12.1 µM (active).

As for `CCn1c(SCC(=O)N2CCCC2)nnc1-c1ccc(N)cc1`, the figures for the IC50 in assay [6] and in assay [7] were 2.31 µM (active) and 2.75 µM (active), respectively. Further, the concentration giving a half-maximal response (EC50) in assay [3] was 2.07 µM (active).

Regarding `Cc1ccc(C(C#N)c2c(Br)cnn(Cc3cccc4ccccc34)c2=O)cc1` (centres undefined), the IC50 in assay [1] and in assay [2] was 0.219 µM (active) throughout.

As for `O=C(Nc1ccccc1F)c1ccc([N+](=O)[O-])s1`, the EC50 in assay [8] is 0.614 µM (active); in assay [9], > 30 µM (not active). The CC50 is 28.8 µM (active) in [10] and > 20 µM (active) in assay [11]. For the same compound, the IC50 in “cells” is 4.91 µM (active). For the same compound, the AC50 in the assay with Escherichia coli was 27.5 µM (active).

`CC(C)OC(=O)c1c(N)n(CCCN2CCOCC2)c2nc3ccccc3nc12`: the AC50 on Trypsin is 6.98 µM (active); at CAAX prenyl protease 2 [4], 11.9 µM (active); at CAAX prenyl protease 2 [5], 4.27 µM (active).

`O=C(O)C(c1ccccc1)N1C(=O)/C(=C\c2ccc(-c3ccc(Br)cc3)o2)SC1=S` (centres undefined): the values for the 50% effective concentration (EC50) (in assay [12]; at Streptokinase A; in the assay on Streptococcus) were 1.81 µM (active), 1.55 µM (active) and 2.51 µM (active), respectively. The IC50 in [13] is 4.08 µM (active).

For orientation: IC50 means the midpoint of a concentration-inhibition curve. A word on the EC50: it is the midpoint of the concentration-response curve. Broadly, the AC50 is the concentration giving half of the maximal activity seen. A word on the CC50: it is the concentration at which the toxic effect on the cells reaches its halfway point.
